Test systems include SNB-75; NCI-H226; CAKI-1; 786-0; CCRF-CEM; U-251; DU-145; SK-OV-3; Hs-578T; UO-31; SK-MEL-5; UACC-62; KM12; SNB-19; HT-29; A549; SF-539; OVCAR-5; MOLT-4; T47D.
What all share (assay): NCI anticancer screen, dose series, 48 h

The structures appear in SMILES notation.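 These data come from cells grown in 96-well plates and exposed to compound for 48 hours at five concentrations. GI50 marks 50% less growth.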 The source made the active and inactive calls. No stated cut-off is given here; in the data, active = GI50 up to about 1.1 µM and inactive = higher.

With `CC(NC(=O)C(N)CC(=O)O)NC(=O)N1CCOCC1` (configuration not stated), the GI50 in the experiment on SNB-75, in the experiment with NCI-H226, in the experiment with CAKI-1, with 786-0, in the experiment on CCRF-CEM and in the experiment with U-251 was > 100 µM (inactive) throughout. Further, the GI50 is > 100 µM (inactive) in the experiment on DU-145; > 100 µM (inactive) with SK-OV-3; > 100 µM (inactive) in the experiment on Hs-578T; > 100 µM (inactive) with UO-31; > 100 µM (inactive) in the experiment on SK-MEL-5; 19.1 µM (inactive) with UACC-62. The GI50 with KM12, in the experiment on SNB-19, with HT-29, in the experiment on A549, in the experiment on SF-539 and with OVCAR-5 was > 100 µM (inactive) each time. Further, the GI50 in the experiment on MOLT-4 was > 100 µM (inactive).

For `O=C(N/C(=C/c1ccc(Cl)cc1)c1nc2ccccc2c(=O)n1Nc1ccc([N+](=O)[O-])cc1[N+](=O)[O-])c1ccccc1`, the GI50 in the experiment with SNB-75, in the experiment on T47D, with NCI-H226, in the experiment on CAKI-1, with 786-0 and in the experiment with CCRF-CEM was > 100 µM (inactive) in each case. Besides, the GI50 in the experiment on U-251, with SK-OV-3, in the experiment on Hs-578T, with UO-31, in the experiment on SK-MEL-5 and in the experiment with UACC-62 was > 100 µM (inactive) each time. Further, the GI50 in the experiment with KM12, in the experiment on SNB-19, in the experiment with HT-29, in the experiment on A549, with SF-539 and in the experiment on OVCAR-5 was > 100 µM (inactive) in each case. In addition, the GI50 with MOLT-4 is > 100 µM (inactive).

In the case of `Oc1c(N2CCOCC2)cc(-c2cc(N3CCOCC3)c(O)c3ccccc23)c2ccccc12`, the GI50 was 2.26 µM (inactive) with SNB-75; 12.8 µM (inactive) in the experiment on T47D; 10.1 µM (inactive) with NCI-H226; 2.69 µM (inactive) with CAKI-1; 1.63 µM (inactive) with 786-0; 1.48 µM (inactive) in the experiment with CCRF-CEM. The GI50 was 1.82 µM (inactive) in the experiment with U-251; 6.47 µM (inactive) in the experiment with SK-OV-3; 3.44 µM (inactive) in the experiment with Hs-578T; 1.73 µM (inactive) in the experiment on UO-31; 0.422 µM (active) in the experiment with SK-MEL-5; 2.13 µM (inactive) in the experiment on UACC-62. In addition, the GI50 with KM12 is 6.05 µM (inactive); with SNB-19, 3.61 µM (inactive); with HT-29, 2.16 µM (inactive); with A549, 2.26 µM (inactive); in the experiment on SF-539, 2.09 µM (inactive); in the experiment on OVCAR-5, 2.86 µM (inactive). Also, in the experiment with MOLT-4, the GI50 was 1.71 µM (inactive).

`CP(=O)(O)C(N)c1ccccc1` (configuration not stated): the GI50 in the experiment with T47D, in the experiment on NCI-H226, in the experiment with CAKI-1, in the experiment on 786-0, in the experiment with CCRF-CEM and in the experiment on U-251 was > 100 µM (inactive) throughout. The GI50 with DU-145, in the experiment on SK-OV-3, with Hs-578T, with UO-31, in the experiment on SK-MEL-5 and in the experiment with UACC-62 was > 100 µM (inactive) throughout. Further, the GI50 in the experiment with KM12, with SNB-19, in the experiment with HT-29, in the experiment with A549, in the experiment with OVCAR-5 and in the experiment with MOLT-4 was > 100 µM (inactive) throughout.

On to `C/C(=C\[Si](C)(C)c1ccco1)C(C)(O)[C@H](C)O` (some centres not stated), for which the GI50 is 16.4 µM (inactive) with T47D; 64.9 µM (inactive) in the experiment on NCI-H226; > 100 µM (inactive) in the experiment with CAKI-1; 44.9 µM (inactive) with 786-0; 32.9 µM (inactive) with CCRF-CEM; > 100 µM (inactive) with U-251. Besides, the GI50 in the experiment with DU-145 was 38.4 µM (inactive); with SK-OV-3, > 100 µM (inactive); with Hs-578T, 55.3 µM (inactive); in the experiment on SK-MEL-5, 40.7 µM (inactive); in the experiment with UACC-62, > 100 µM (inactive); in the experiment on KM12, 40.6 µM (inactive). In addition, the GI50 with SNB-19 is > 100 µM (inactive); with HT-29, 41 µM (inactive); in the experiment on A549, 48.2 µM (inactive); in the experiment on SF-539, > 100 µM (inactive); in the experiment on OVCAR-5 it was > 100 µM (inactive); with MOLT-4 it was 33.4 µM (inactive).

As to `C/C(=N\n1c(Cc2ccccc2)n[nH]c1=O)c1ccccc1`, the GI50 in the experiment on T47D, in the experiment with NCI-H226, with CAKI-1, in the experiment with 786-0, in the experiment on CCRF-CEM and in the experiment on U-251 was > 100 µM (inactive) each time. Further, the GI50 in the experiment on DU-145, in the experiment with Hs-578T, in the experiment with UO-31, in the experiment on SK-MEL-5, in the experiment on UACC-62 and with KM12 was > 100 µM (inactive) throughout. The GI50 in the experiment on SNB-19, in the experiment on HT-29, in the experiment on A549, with SF-539, in the experiment on OVCAR-5 and with MOLT-4 was > 100 µM (inactive) in each case.

For `COc1ccc2c3c1O[C@H]1[C@@H](O)CC[C@@]4(O)[C@@H](C2)N(C)CC[C@]314`, the GI50 in the experiment on T47D, with NCI-H226, in the experiment on CAKI-1, in the experiment on 786-0, in the experiment on CCRF-CEM and with U-251 was > 100 µM (inactive) throughout. Also, the GI50 with DU-145, in the experiment on SK-OV-3, with Hs-578T, in the experiment on UO-31, with SK-MEL-5 and in the experiment with UACC-62 was > 100 µM (inactive) in each case. Besides, the GI50 in the experiment on KM12, in the experiment with SNB-19, with HT-29, in the experiment on A549, with SF-539 and in the experiment with OVCAR-5 was > 100 µM (inactive) throughout. In addition, the GI50 in the experiment with MOLT-4 is > 100 µM (inactive).

Consider `CN1CCOC1c1ccccc1O` (configuration not stated), for which the GI50 was 85.3 µM (inactive) with SNB-75; > 100 µM (inactive) in the experiment with T47D; > 100 µM (inactive) with NCI-H226; > 100 µM (inactive) in the experiment with CAKI-1; > 100 µM (inactive) with 786-0; > 100 µM (inactive) with CCRF-CEM. Moreover, the GI50 in the experiment on U-251, with SK-OV-3, with Hs-578T, in the experiment on UO-31, in the experiment on SK-MEL-5 and with UACC-62 was > 100 µM (inactive) throughout. Moreover, the GI50 with KM12, in the experiment with SNB-19, in the experiment with HT-29, in the experiment on A549, with SF-539 and in the experiment with OVCAR-5 was > 100 µM (inactive) in each case. In the experiment on MOLT-4, the GI50 was > 100 µM (inactive).

With `C=C(Cl)/C(=C\Br)CCC(Cl)C(C)C.C=C(Cl)/C(=C\Cl)CCC(Cl)C(C)C` (configuration not stated), the GI50 is 18 µM (inactive) in the experiment with SNB-75; 23.4 µM (inactive) in the experiment with NCI-H226; 17.8 µM (inactive) with CAKI-1; 15.3 µM (inactive) in the experiment with 786-0; 5.62 µM (inactive) in the experiment on CCRF-CEM; 16.4 µM (inactive) in the experiment on U-251. For the same molecule, the GI50 was 18 µM (inactive) with DU-145; 22.8 µM (inactive) in the experiment with SK-OV-3; 11.9 µM (inactive) in the experiment with Hs-578T; 18.2 µM (inactive) in the experiment with UO-31; 13.9 µM (inactive) in the experiment with SK-MEL-5; 12.7 µM (inactive) in the experiment with UACC-62. The GI50 was 14.3 µM (inactive) with KM12; 17.6 µM (inactive) with SNB-19; 17.7 µM (inactive) in the experiment with HT-29; 28 µM (inactive) in the experiment on A549; 18.2 µM (inactive) with SF-539; 20.5 µM (inactive) in the experiment on OVCAR-5. Also, the GI50 in the experiment on MOLT-4 was 6.52 µM (inactive).

As for `C[C@]12CC[C@H](OC3OC(CO)C(O)C(O)C3O)C[C@H]1CC[C@@H]1[C@@H]2CC[C@]2(C)[C@@H](C3=CCOC3=O)CC[C@]12O` (some centres not stated) [ACTODIGIN], the GI50 in the experiment with SNB-75 was 6.84 µM (inactive); with T47D it was > 100 µM (inactive); in the experiment with 786-0 it was > 100 µM (inactive); in the experiment with U-251, 4.73 µM (inactive); with DU-145, > 100 µM (inactive); in the experiment with SK-OV-3 it was > 50 µM (inactive). The GI50 was 40.9 µM (inactive) in the experiment with Hs-578T; 40.3 µM (inactive) in the experiment on UO-31; 7.52 µM (inactive) in the experiment with SK-MEL-5; 6.64 µM (inactive) in the experiment with UACC-62; 19.2 µM (inactive) in the experiment on KM12; 41.1 µM (inactive) in the experiment on HT-29. The figures for the GI50 with A549, in the experiment with SF-539 and in the experiment with OVCAR-5 were 15.7 µM (inactive), 0.447 µM (active) and > 50 µM (inactive), respectively.

Turning to `Cc1ccc(OCC2CO2)c(Br)c1` (configuration not stated), the GI50 is 63.1 µM (inactive) in the experiment with T47D; 15.9 µM (inactive) in the experiment on NCI-H226; 33.7 µM (inactive) with CAKI-1; 19.5 µM (inactive) with 786-0; 27.9 µM (inactive) with CCRF-CEM; 15.2 µM (inactive) with U-251. For the same molecule, the GI50 in the experiment with DU-145 was 38.4 µM (inactive); in the experiment on SK-OV-3, 19.1 µM (inactive); in the experiment on Hs-578T, 28.5 µM (inactive); in the experiment with UO-31, 18.5 µM (inactive); in the experiment with SK-MEL-5, 18.1 µM (inactive); in the experiment on UACC-62 it was 17.7 µM (inactive). Besides, the GI50 in the experiment with KM12 was 66.7 µM (inactive); in the experiment with SNB-19 it was 41.3 µM (inactive); in the experiment with HT-29, 12.7 µM (inactive); in the experiment with A549 it was 20.3 µM (inactive); in the experiment with SF-539, 15 µM (inactive); in the experiment with OVCAR-5 it was 17.5 µM (inactive). Also, the GI50 in the experiment on MOLT-4 was 7.83 µM (inactive).

For the origin of these results see ChEMBL document CHEMBL1201862, “PubChem BioAssay data set” (2004).
